Laboratory results taken from PubChem BioAssay AID2060499 (Molecular Pharmacology Branch, DTP, NCI, 2025).

Test system: 777334-354-R2-J4-PDC tumor spheroids with HUVEC/MSC, viability
Test: Anticancer human tumor 777334-354-R2-J4-PDC patient-derived pancreatic adenocarcinoma cell line growth inhibition [GQUAD]
Settings: for IC50: curve of first compound; for viability, T/C: stronger effect = lower value
Procedure, shortened: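 Viability of tumor cells grown as complex spheroids with endothelial and stromal cells, exposed to drug combinations. Top concentration at or near clinical Cmax (else 10 microM), diluted in half-log increments.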

[1] = second compound 0.0316 µM, first compound 0.0316 µM
[2] = second compound 0.0316 µM, first compound 0.1 µM
[3] = second compound 0.0316 µM, first compound 0.316 µM
[4] = second compound 0.0316 µM, first compound 1 µM
[5] = second compound 0.0316 µM, first compound 3.16 µM
[6] = second compound 0.0316 µM, first compound 10 µM
[7] = second compound 0.1 µM, first compound 0.0316 µM
[8] = second compound 0.1 µM, first compound 0.1 µM
[9] = second compound 0.1 µM, first compound 0.316 µM
[10] = second compound 0.1 µM, first compound 1 µM
[11] = second compound 0.1 µM, first compound 3.16 µM
[12] = second compound 0.1 µM, first compound 10 µM
[13] = second compound 0.316 µM, first compound 0.0316 µM
[14] = second compound 0.316 µM, first compound 0.1 µM
[15] = second compound 0.316 µM, first compound 0.316 µM
[16] = second compound 0.316 µM, first compound 1 µM
[17] = second compound 0.316 µM, first compound 3.16 µM
[18] = second compound 0.316 µM, first compound 10 µM
[19] = second compound 1 µM, first compound 0.0316 µM
[20] = second compound 1 µM, first compound 0.1 µM
[21] = second compound 1 µM, first compound 0.316 µM
[22] = second compound 1 µM, first compound 1 µM
[23] = second compound 1 µM, first compound 3.16 µM
[24] = second compound 1 µM, first compound 10 µM
[25] = second compound 3.16 µM, first compound 0.0316 µM
[26] = second compound 3.16 µM, first compound 0.1 µM
[27] = second compound 3.16 µM, first compound 0.316 µM
[28] = second compound 3.16 µM, first compound 1 µM
[29] = second compound 3.16 µM, first compound 3.16 µM
[30] = second compound 3.16 µM, first compound 10 µM
[31] = second compound 10 µM, first compound 0.0316 µM
[32] = second compound 10 µM, first compound 0.1 µM
[33] = second compound 10 µM, first compound 0.316 µM
[34] = second compound 10 µM, first compound 1 µM
[35] = second compound 10 µM, first compound 3.16 µM
[36] = second compound 10 µM, first compound 10 µM
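Also: spheroids exposed to compounds for 7 days before readout.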

Question: Which IC50 (second compound 0.0316 µM) does the source give for `CCCS(=O)(=O)Nc1ccc(F)c(C(=O)c2c[nH]c3ncc(-c4ccc(Cl)cc4)cc23)c1F` + Cc1[nH]c2ccc(F)cc2c1-c1nc2c3cccnc3c3ncccc3c2[nH]1 here?
Answer: 7.75 µM

Question: What about the IC50 (second compound 0.1 µM) of the same compound?
Answer: 8.35 µM

Question: And the IC50 (second compound 0.316 µM)?
Answer: 7.78 µM

Question: What about the IC50 (second compound 1 µM) of the same compound?
Answer: 7.02 µM

Question: And the IC50 (second compound 3.16 µM)?
Answer: < 0.0316 µM

Question: What about the IC50 (second compound 10 µM) of the same compound?
Answer: < 0.0316 µM

Question: What about the viability, T/C [1] of the same compound?
Answer: 108%

Question: And the viability, T/C [2]?
Answer: 108%

Question: What about the viability, T/C [3] of the same compound?
Answer: 114%

Question: And the viability, T/C [4]?
Answer: 111%

Question: What about the viability, T/C [5] of the same compound?
Answer: 124%

Question: What about the viability, T/C [6] of the same compound?
Answer: 32%

Question: What about the viability, T/C [7] of the same compound?
Answer: 111%

Question: And the viability, T/C [8]?
Answer: 104%

Question: What about the viability, T/C [9] of the same compound?
Answer: 109%

Question: And the viability, T/C [10]?
Answer: 122%

Question: What about the viability, T/C [11] of the same compound?
Answer: 130%

Question: What about the viability, T/C [12] of the same compound?
Answer: 38%

Question: What about the viability, T/C [13] of the same compound?
Answer: 94.7%

Question: And the viability, T/C [14]?
Answer: 102%

Question: And the viability, T/C [15]?
Answer: 96.2%

Question: What about the viability, T/C [16] of the same compound?
Answer: 126%

Question: What about the viability, T/C [17] of the same compound?
Answer: 117%

Question: And the viability, T/C [18]?
Answer: 33.9%

Question: What about the viability, T/C [19] of the same compound?
Answer: 79.8%

Question: What about the viability, T/C [20] of the same compound?
Answer: 99.4%

Question: What about the viability, T/C [21] of the same compound?
Answer: 92.4%

Question: What about the viability, T/C [22] of the same compound?
Answer: 109%

Question: What about the viability, T/C [23] of the same compound?
Answer: 111%

Question: And the viability, T/C [24]?
Answer: 28.5%

Question: What about the viability, T/C [25] of the same compound?
Answer: 50.2%

Question: What about the viability, T/C [26] of the same compound?
Answer: 46.1%

Question: What about the viability, T/C [27] of the same compound?
Answer: 33.2%

Question: And the viability, T/C [28]?
Answer: 30.6%

Question: And the viability, T/C [29]?
Answer: 38.5%

Question: And the viability, T/C [30]?
Answer: 13.8%

Question: What about the viability, T/C [31] of the same compound?
Answer: 44.3%

Question: What about the viability, T/C [32] of the same compound?
Answer: 31.9%

Question: What about the viability, T/C [33] of the same compound?
Answer: 43.8%

Question: And the viability, T/C [34]?
Answer: 28.8%

Question: And the viability, T/C [35]?
Answer: 28.4%

Question: And the viability, T/C [36]?
Answer: 15.8%

Question: With `COc1ncnc(C2CC2)c1-c1ncc2cnn(Cc3ccc(-c4nc(C(F)(F)F)cn4C(C)C)cc3)c2n1` + Cc1cnc(CNC(=O)c2c(=O)c3ccc(N4CCCN(C)CC4)nc3n3c2sc2ccccc23)cn1 as the compound, how does the IC50 (second compound 0.0316 µM) read?
Answer: > 10 µM

Question: What about the IC50 (second compound 0.1 µM) of the same compound?
Answer: > 10 µM

Question: What about the IC50 (second compound 0.316 µM) of the same compound?
Answer: > 10 µM

Question: What about the IC50 (second compound 1 µM) of the same compound?
Answer: > 10 µM

Question: What about the IC50 (second compound 3.16 µM) of the same compound?
Answer: > 10 µM

Question: What about the IC50 (second compound 10 µM) of the same compound?
Answer: > 10 µM

Question: And the viability, T/C [1]?
Answer: 106%

Question: What about the viability, T/C [2] of the same compound?
Answer: 94.8%

Question: What about the viability, T/C [3] of the same compound?
Answer: 101%

Question: What about the viability, T/C [4] of the same compound?
Answer: 92.5%

Question: What about the viability, T/C [5] of the same compound?
Answer: 106%

Question: What about the viability, T/C [6] of the same compound?
Answer: 95%

Question: What about the viability, T/C [7] of the same compound?
Answer: 91.5%

Question: And the viability, T/C [8]?
Answer: 83.8%

Question: What about the viability, T/C [9] of the same compound?
Answer: 97.6%

Question: And the viability, T/C [10]?
Answer: 80.8%

Question: And the viability, T/C [11]?
Answer: 92.4%

Question: And the viability, T/C [12]?
Answer: 90.3%

Question: What about the viability, T/C [13] of the same compound?
Answer: 82.8%

Question: And the viability, T/C [14]?
Answer: 81%

Question: What about the viability, T/C [15] of the same compound?
Answer: 72%

Question: What about the viability, T/C [16] of the same compound?
Answer: 85.8%

Question: And the viability, T/C [17]?
Answer: 87.8%

Question: What about the viability, T/C [18] of the same compound?
Answer: 86.5%

Question: And the viability, T/C [19]?
Answer: 65.3%

Question: And the viability, T/C [20]?
Answer: 75.7%

Question: What about the viability, T/C [21] of the same compound?
Answer: 67.4%

Question: And the viability, T/C [22]?
Answer: 76.3%

Question: What about the viability, T/C [23] of the same compound?
Answer: 77.4%

Question: And the viability, T/C [24]?
Answer: 82.1%

Question: What about the viability, T/C [25] of the same compound?
Answer: 64.3%

Question: What about the viability, T/C [26] of the same compound?
Answer: 73.5%

Question: And the viability, T/C [27]?
Answer: 55%

Question: And the viability, T/C [28]?
Answer: 65.7%

Question: And the viability, T/C [29]?
Answer: 80.8%

Question: What about the viability, T/C [30] of the same compound?
Answer: 70.3%

Question: And the viability, T/C [31]?
Answer: 55.5%

Question: And the viability, T/C [32]?
Answer: 63.6%

Question: And the viability, T/C [33]?
Answer: 57.9%

Question: And the viability, T/C [34]?
Answer: 59.2%

Question: What about the viability, T/C [35] of the same compound?
Answer: 58.2%

Question: What about the viability, T/C [36] of the same compound?
Answer: 56.7%

Question: For `CC[C@@]1(O)C(=O)OCc2c1cc1n(c2=O)Cc2cc3c(CN(C)C)c(O)ccc3nc2-1` + Cc1[nH]c2ccc(F)cc2c1-c1nc2c3cccnc3c3ncccc3c2[nH]1, which IC50 (second compound 0.0316 µM) is on record?
Answer: 0.218 µM

Question: What about the IC50 (second compound 0.1 µM) of the same compound?
Answer: 0.191 µM

Question: What about the IC50 (second compound 0.316 µM) of the same compound?
Answer: 0.2 µM

Question: What about the IC50 (second compound 1 µM) of the same compound?
Answer: 0.124 µM

Question: What about the IC50 (second compound 3.16 µM) of the same compound?
Answer: < 0.000999 µM

Question: And the IC50 (second compound 10 µM)?
Answer: < 0.000999 µM

Question: And the viability, T/C (second compound 0.0316 µM, first compound 0.000999 µM)?
Answer: 103%

Question: And the viability, T/C (second compound 0.0316 µM, first compound 0.00316 µM)?
Answer: 102%

Question: What about the viability, T/C (second compound 0.0316 µM, first compound 0.00999 µM) of the same compound?
Answer: 104%

Question: And the viability, T/C [1]?
Answer: 82.3%

Question: What about the viability, T/C (second compound 0.0316 µM, first compound 0.0999 µM) of the same compound?
Answer: 69.6%

Question: What about the viability, T/C [3] of the same compound?
Answer: 41.3%

Question: What about the viability, T/C (second compound 0.1 µM, first compound 0.000999 µM) of the same compound?
Answer: 100%

Question: What about the viability, T/C (second compound 0.1 µM, first compound 0.00316 µM) of the same compound?
Answer: 97.1%

Question: What about the viability, T/C (second compound 0.1 µM, first compound 0.00999 µM) of the same compound?
Answer: 111%

Question: And the viability, T/C [7]?
Answer: 96%

Question: And the viability, T/C (second compound 0.1 µM, first compound 0.0999 µM)?
Answer: 61%

Question: What about the viability, T/C [9] of the same compound?
Answer: 41.5%

Question: What about the viability, T/C (second compound 0.316 µM, first compound 0.000999 µM) of the same compound?
Answer: 89.5%

Question: What about the viability, T/C (second compound 0.316 µM, first compound 0.00316 µM) of the same compound?
Answer: 95.5%

Question: What about the viability, T/C (second compound 0.316 µM, first compound 0.00999 µM) of the same compound?
Answer: 96.4%

Question: What about the viability, T/C [13] of the same compound?
Answer: 85.5%

Question: What about the viability, T/C (second compound 0.316 µM, first compound 0.0999 µM) of the same compound?
Answer: 61.7%

Question: What about the viability, T/C [15] of the same compound?
Answer: 42.4%

Question: What about the viability, T/C (second compound 1 µM, first compound 0.000999 µM) of the same compound?
Answer: 79.3%

Question: What about the viability, T/C (second compound 1 µM, first compound 0.00316 µM) of the same compound?
Answer: 83.6%

Question: What about the viability, T/C (second compound 1 µM, first compound 0.00999 µM) of the same compound?
Answer: 85.9%

Question: And the viability, T/C [19]?
Answer: 83.6%

Question: And the viability, T/C (second compound 1 µM, first compound 0.0999 µM)?
Answer: 53.9%

Question: And the viability, T/C [21]?
Answer: 33%

Question: What about the viability, T/C (second compound 3.16 µM, first compound 0.000999 µM) of the same compound?
Answer: 34.2%

Question: And the viability, T/C (second compound 3.16 µM, first compound 0.00316 µM)?
Answer: 41.7%

Question: What about the viability, T/C (second compound 3.16 µM, first compound 0.00999 µM) of the same compound?
Answer: 35.7%

Question: And the viability, T/C [25]?
Answer: 28.4%

Question: And the viability, T/C (second compound 3.16 µM, first compound 0.0999 µM)?
Answer: 15.9%

Question: What about the viability, T/C [27] of the same compound?
Answer: 14.6%

Question: What about the viability, T/C (second compound 10 µM, first compound 0.000999 µM) of the same compound?
Answer: 28.4%

Question: What about the viability, T/C (second compound 10 µM, first compound 0.00316 µM) of the same compound?
Answer: 38.5%

Question: What about the viability, T/C (second compound 10 µM, first compound 0.00999 µM) of the same compound?
Answer: 30.7%

Question: What about the viability, T/C [31] of the same compound?
Answer: 20.2%

Question: What about the viability, T/C (second compound 10 µM, first compound 0.0999 µM) of the same compound?
Answer: 13.3%

Question: And the viability, T/C [33]?
Answer: 11.3%
